Tests used:
Type in all cases: in vivo
[1] = tested on: Eriochloa villosa (ERBVI); experiment: Experiment B2 comparative glasshouse herbicide test, pre- and post-emergence, phytotoxicity
Experimental: (§1) A comparative test is performed to compare the efficacy of quinoline compounds of the present invention with quinoline compounds taught in WO2014/037342 and napthyridines taught in WO2013/092834. Seeds of a variety of test species were sown in standard soil in pots. After cultivation for one day (pre-emergence) or after 10 days cultivation (post-emergence) under controlled conditions in a glasshouse (at 24/16° C., day/night; 14 hours light; 65% humidity), the plants were sprayed with an aqueous spray solution derived from the formulation of the technical active ingredient in 0.6 ml acetone and 45 ml formulation solution containing 10.6% Emulsogen EL (Registry number 61791-12-6), 42.2% N-methyl pyrrolidone, 42.2% dipropylene glycol monomethyl ether (CAS RN 34590-94-8) and 0.2% X-77 (CAS RN 11097-66-8). The test plants were then grown in a glasshouse under controlled conditions in a glasshouse (at 24/16° C., day/night; 14 hours light; 65% humidity) and watered twice daily. After 14 days for post-emergence and 21 days for pre-emergence and phytotoxicity evaluated using a five point scale (5=80-100%; 4=60-79%; 3=40-59%; 2=20-39%; 1=0-19%). Test Plants:—Eriochloa villosa (ERBVI), Panicum miliaceum (PANMI).

[2] = tested on: Panicum miliaceum (PANMI); experiment: as above
Experimental: as §1

Lolium perenne (LOLPE) = experiment: Experiment B1 glasshouse herbicide test, pre- and post-emergence, percentage damage; conditions: evaluated after 13 days
Experimental: (§2) Seeds of a variety of test species are sown in standard soil in pots (Lolium perenne (LOLPE), Solanum nigrum (SOLNI), Amaranthus retoflexus (AMARE), Setaria faberi (SETFA), Echinochloa crus-galli (ECHCG), Ipomoea hederacea (IPOHE)). After cultivation for one day (pre-emergence) or after 8 days cultivation (post-emergence) under controlled conditions in a glasshouse (at 24/16° C., day/night; 14 hours light; 65% humidity), the plants are sprayed with an aqueous spray solution derived from the formulation of the technical active ingredient in acetone/water (50:50) solution containing 0.5% Tween 20 (polyoxyethelyene sorbitan monolaurate, CAS RN 9005-64-5). […] The test plants are then grown in a glasshouse under controlled conditions in a glasshouse (at 24/16° C., day/night; 14 hours light; 65% humidity) and watered twice daily. After 13 days for pre and post-emergence, the test is evaluated for the percentage damage caused to the plant. The biological activities are shown in the following table on a five point scale (5=80-100%; 4=60-79%; 3=40-59%; 2=20-39%; 1=0-19%).

Solanum nigrum (SOLNI) = experiment: as above; conditions: evaluated after 13 days
Experimental: as §2

[3] = tested on: Ipomoea hederacea (IPOHE); experiment: as above; conditions: evaluated after 13 days
Experimental: as §2

Setaria faberi (SETFA) = experiment: as above; conditions: evaluated after 13 days
Experimental: as §2

[4] = tested on: Echinochloa crus-galli (ECHCG); experiment: as above; conditions: evaluated after 13 days
Experimental: as §2

[5] = tested on: Amaranthus retoflexus (AMARE); experiment: as above; conditions: evaluated after 13 days
Experimental: as §2

[6] = POST Application (60 g/ha), after 10 days cultivation, evaluated after 14 days
[7] = PRE Application (250 g/ha), after cultivation for one day, evaluated after 21 days
[8] = POST Application (post-emergence, after 8 days cultivation), 1000 g/h
[9] = PRE Application (pre-emergence, after cultivation for one day), 1000 g/h
[10] = POST Application (post-emergence), applied at 250 g/ha
[11] = PRE Application (pre-emergence), applied at 250 g/ha

Compound | percentage damage caused to the plant, five point scale, LOLPE (Lolium perenne (LOLPE); [8]) | percentage damage caused to the plant, five point scale, LOLPE (Lolium perenne (LOLPE); [9]) | percentage damage caused to the plant, five point scale, SOLNI (Solanum nigrum (SOLNI); [8]) | percentage damage caused to the plant, five point scale, SOLNI (Solanum nigrum (SOLNI); [9]) | percentage damage caused to the plant, five point scale, IPOHE [3, 8] | percentage damage caused to the plant, five point scale, IPOHE [3, 9] | percentage damage caused to the plant, five point scale, SETFA (Setaria faberi (SETFA); [8]) | percentage damage caused to the plant, five point scale, SETFA (Setaria faberi (SETFA); [9]) | percentage damage caused to the plant, five point scale, ECHCG [4, 8] | percentage damage caused to the plant, five point scale, ECHCG [4, 9] | percentage damage caused to the plant, five point scale, AMARE [5, 8] | percentage damage caused to the plant, five point scale, AMARE [5, 9] | other results
Cn1nnnc1NC(=O)c1cc2cccnc2c(-c2ccccc2)c1C(F)(F)F [Compound 1.001, N-(1-methyltetrazol-5-yl)-8-phenyl-7-(trifluoromethyl)-quinoline-6-carboxamide] | 5 (5=80-100%) | 5 (5=80-100%) | 5 (5=80-100%) | 5 (5=80-100%) | 5 (5=80-100%) | 5 (5=80-100%) | 5 (5=80-100%) | 5 (5=80-100%) | 5 (5=80-100%) | 5 (5=80-100%) | 5 (5=80-100%) | 5 (5=80-100%) | phytotoxicity, five point scale, ERBVI [1, 6]: 5 (5=80-100%); phytotoxicity, five point scale, ERBVI [1, 7]: 3 (3=40-59%); phytotoxicity, five point scale, PANMI [2, 6]: 5 (5=80-100%); phytotoxicity, five point scale, PANMI [2, 7]: 5 (5=80-100%)
O=C(Nc1nnnn1-c1ccccc1)c1cc2cccnc2c(-c2ccccc2)c1C(F)(F)F [Compound 1.033] | 1 (1=0-19%) | 1 (1=0-19%) | 5 (5=80-100%) | 4 (4=60-79%) | 5 (5=80-100%) | 3 (3=40-59%) | 2 (2=20-39%) | 1 (1=0-19%) | 2 (2=20-39%) | 1 (1=0-19%) | 5 (5=80-100%) | 5 (5=80-100%) | –
COc1ccc(-c2c(C)c(C(=O)Nc3nnnn3C)cc3cccnc23)cc1 [Compound 1.034] | 4 (4=60-79%) | 5 (5=80-100%) | 5 (5=80-100%) | 5 (5=80-100%) | 5 (5=80-100%) | 5 (5=80-100%) | 5 (5=80-100%) | 5 (5=80-100%) | 5 (5=80-100%) | 5 (5=80-100%) | 5 (5=80-100%) | 5 (5=80-100%) | –
Cc1c(C(=O)Nc2nnnn2C)cc2cccnc2c1-c1ccc(F)cc1 [Compound 1.035] | 4 (4=60-79%) | 5 (5=80-100%) | 5 (5=80-100%) | 5 (5=80-100%) | 5 (5=80-100%) | 5 (5=80-100%) | 5 (5=80-100%) | 5 (5=80-100%) | 5 (5=80-100%) | 5 (5=80-100%) | 5 (5=80-100%) | 5 (5=80-100%) | –
Cc1c(C(=O)Nc2nnnn2C)cc2cccnc2c1-c1ccc(Cl)cc1 [Compound 1.036] | 4 (4=60-79%) | 4 (4=60-79%) | 5 (5=80-100%) | 5 (5=80-100%) | 5 (5=80-100%) | 5 (5=80-100%) | 5 (5=80-100%) | 5 (5=80-100%) | 5 (5=80-100%) | 5 (5=80-100%) | 5 (5=80-100%) | 5 (5=80-100%) | –
COc1ccc(-c2c(C)c(C(=O)Nc3nnnn3C)cc3ccc(C)nc23)cc1 [Compound 1.037] | 5 (5=80-100%) | 3 (3=40-59%) | 5 (5=80-100%) | 5 (5=80-100%) | 5 (5=80-100%) | 4 (4=60-79%) | 5 (5=80-100%) | 5 (5=80-100%) | 5 (5=80-100%) | 5 (5=80-100%) | 5 (5=80-100%) | 5 (5=80-100%) | –
Cc1ccc2cc(C(=O)Nc3nnnn3C)c(C)c(-c3ccc(S(C)(=O)=O)cc3)c2n1 [Compound 1.038] | 5 (5=80-100%) | 4 (4=60-79%) | 5 (5=80-100%) | 5 (5=80-100%) | 5 (5=80-100%) | 4 (4=60-79%) | 5 (5=80-100%) | 5 (5=80-100%) | 5 (5=80-100%) | 5 (5=80-100%) | 5 (5=80-100%) | 5 (5=80-100%) | –
Cn1nnnc1NC(=O)c1cc2cccnc2c(-c2ccccc2)c1[S+](C)[O-] (stereo not shown) [Compound 1.045] | – | – | – | – | – | – | – | – | – | – | – | – | percentage damage caused to the plant, five point scale, LOLPE (Lolium perenne (LOLPE); [10]): 3 (3=40-59%); percentage damage caused to the plant, five point scale, LOLPE (Lolium perenne (LOLPE); [11]): 1 (1=0-19%); percentage damage caused to the plant, five point scale, SOLNI (Solanum nigrum (SOLNI); [10]): 5 (5=80-100%); percentage damage caused to the plant, five point scale, SOLNI (Solanum nigrum (SOLNI); [11]): 4 (4=60-79%); percentage damage caused to the plant, five point scale, IPOHE [3, 10]: 5 (5=80-100%); percentage damage caused to the plant, five point scale, IPOHE [3, 11]: 2 (2=20-39%); percentage damage caused to the plant, five point scale, SETFA (Setaria faberi (SETFA); [10]): 5 (5=80-100%); percentage damage caused to the plant, five point scale, SETFA (Setaria faberi (SETFA); [11]): 1 (1=0-19%); percentage damage caused to the plant, five point scale, ECHCG [4, 10]: 5 (5=80-100%); percentage damage caused to the plant, five point scale, ECHCG [4, 11]: 4 (4=60-79%); percentage damage caused to the plant, five point scale, AMARE [5, 10]: 5 (5=80-100%); percentage damage caused to the plant, five point scale, AMARE [5, 11]: 4 (4=60-79%)

Reference: US9980486B2, “Herbicidal quinolines” (Syngenta Participations AG, priority 2014, dated 2018)
